According to patent US11161854B2, “Indazolyl-spiro[2.2]pentane-carbonitrile derivatives as LRRK2 inhibitors, pharmaceutical compositions, and uses thereof” (Merck Sharp & Dohme Corp., priority 2017, dated 2021):

Biological target: GST-tagged truncated human mutant G2019S LRRK2 (Homo sapiens (Human), UniProt Q5S007, G2019S)
Test: LRRK2 G2019S Km ATP LanthaScreen Assay
Format: biochemical
Details: 134 μM ATP (Km ATP); fluorescein-labeled LRRKtide substrate; mean IC50 values
Method: The IC50 values reported herein were measured as follows.
Biological Assay: LRRK2 Km ATP LanthaScreen™ Assay
The data presented for the Km ATP LanthaScreen™ Assay represents mean IC50 values based on several test results and may have reasonable deviations depending on the specific conditions and reagents used. Assays were performed in the presence of 134 μM ATP (Km ATP). Upon completion, the assay was stopped and phosphorylated substrate detected with a terbium (Tb)-labeled anti-pERM antibody (cat. no. PV4898). The compound dose response was prepared by diluting a 10 mM stock of compound to a maximum concentration of […] in 100% dimethylsulfoxide followed by custom fold serial dilution in dimethylsulfoxide nine times. Twenty nanoliters of each dilution was spotted via a Labcyte Echo onto a 384-well black-sided plate (Corning 3575) followed by 15 μl of a 1.25 nM enzyme solution in 1× assay buffer (50 mM Tris pH 8.5, 10 mM MgCl2, 0.01% Brij-35, 1 mM EGTA, 2 mM dithiothreitol, 0.05 mM sodium orthovanadate). Following a 15-minute incubation at room temperature, the kinase reaction was started with the addition of 5 μl of 400 nM fluorescein-labeled LRRKtide peptide substrate and 134 μM ATP solution in 1× assay buffer. The reaction was allowed to progress at ambient temperature for 90 minutes. The reaction was then stopped by the addition of 20 μl of TR-FRET Dilution Buffer (Life Technologies, Carlsbad, Calif.) containing 2 nM Tb-labeled anti-phospho LRRKtide antibody and 10 mM EDTA (Life Technologies, Carlsbad, Calif.). After an incubation of 1 hour at room temperature, the plate was read on an EnVision multimode plate reader (Perkin Elmer, Waltham, Mass.) with an excitation wavelength of 337 nm (Laser) and a reading emission at both 520 and 495 nm. […] Abase uses a 4 parameter (4P) logistic fit based on the Levenberg-Marquardt algorithm.

Sequence of GST-tagged truncated human mutant G2019S LRRK2 (Q5S007 970-2527 G2019S): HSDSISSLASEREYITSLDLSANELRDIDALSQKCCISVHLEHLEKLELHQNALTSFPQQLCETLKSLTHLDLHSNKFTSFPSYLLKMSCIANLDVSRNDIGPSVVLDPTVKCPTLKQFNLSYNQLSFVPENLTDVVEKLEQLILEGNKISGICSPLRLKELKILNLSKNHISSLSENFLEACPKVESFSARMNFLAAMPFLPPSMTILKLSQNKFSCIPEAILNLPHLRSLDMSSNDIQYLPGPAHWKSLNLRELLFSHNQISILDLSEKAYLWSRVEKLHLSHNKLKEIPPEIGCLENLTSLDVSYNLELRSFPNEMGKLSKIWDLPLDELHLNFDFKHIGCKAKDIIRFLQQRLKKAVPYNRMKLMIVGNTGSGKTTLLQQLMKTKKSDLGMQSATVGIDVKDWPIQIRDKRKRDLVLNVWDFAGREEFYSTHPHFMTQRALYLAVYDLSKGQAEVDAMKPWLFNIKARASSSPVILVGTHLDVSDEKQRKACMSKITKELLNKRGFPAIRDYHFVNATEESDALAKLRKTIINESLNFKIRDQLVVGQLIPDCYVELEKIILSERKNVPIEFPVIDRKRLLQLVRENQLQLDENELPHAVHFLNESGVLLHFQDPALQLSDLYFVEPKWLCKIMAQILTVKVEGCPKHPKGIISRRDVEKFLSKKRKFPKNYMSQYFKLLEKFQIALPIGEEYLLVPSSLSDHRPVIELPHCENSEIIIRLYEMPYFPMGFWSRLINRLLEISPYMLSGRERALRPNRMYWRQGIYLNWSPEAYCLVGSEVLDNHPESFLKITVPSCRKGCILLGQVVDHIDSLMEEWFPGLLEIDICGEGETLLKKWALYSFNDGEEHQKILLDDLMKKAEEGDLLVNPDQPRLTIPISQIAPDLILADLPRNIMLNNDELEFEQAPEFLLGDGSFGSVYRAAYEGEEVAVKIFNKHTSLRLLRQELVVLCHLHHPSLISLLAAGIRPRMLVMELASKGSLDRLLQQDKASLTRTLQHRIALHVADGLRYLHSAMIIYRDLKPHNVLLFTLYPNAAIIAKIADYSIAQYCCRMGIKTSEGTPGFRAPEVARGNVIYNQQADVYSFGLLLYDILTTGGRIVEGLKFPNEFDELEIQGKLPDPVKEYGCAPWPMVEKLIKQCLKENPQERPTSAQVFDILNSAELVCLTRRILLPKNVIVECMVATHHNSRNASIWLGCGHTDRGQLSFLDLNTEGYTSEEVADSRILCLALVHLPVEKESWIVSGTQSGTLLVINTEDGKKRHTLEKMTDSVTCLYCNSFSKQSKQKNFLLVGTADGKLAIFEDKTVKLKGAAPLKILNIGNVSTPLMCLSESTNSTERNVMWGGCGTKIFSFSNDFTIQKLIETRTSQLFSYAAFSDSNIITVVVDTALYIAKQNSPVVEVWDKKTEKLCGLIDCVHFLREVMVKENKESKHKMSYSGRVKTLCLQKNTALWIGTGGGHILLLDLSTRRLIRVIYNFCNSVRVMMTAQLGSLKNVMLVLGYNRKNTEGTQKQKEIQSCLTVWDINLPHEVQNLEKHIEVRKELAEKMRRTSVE

| SMILES | IC50 [nM] |
| --- | --- |
| N#C[C@@]1(c2ccc3cnn(-c4cc(N5CC(O)C6(CC6)C5)ncn4)c3c2)CC12CC2 (single isomer, unassigned) [Example 3.11-2] | 1.4 |
| N#C[C@]1(c2ccc3cnn(-c4cc(N5CC(O)C6(CC6)C5)ncn4)c3c2)CC12CC2 (single isomer, unassigned) [Example 3.11-3] | 6.3 |
| N#C[C@@]1(c2ccc3cnn(-c4cc(N5CC(O)C6(CC6)C5)ncn4)c3c2)CC12CC2 (single isomer, unassigned) [Example 3.11-4] | 0.6 |
| CC(C)(O)C1CN(c2cc(-n3ncc4ccc([C@]5(C#N)CC56CC6)cc43)ncn2)CCO1 (single isomer, unassigned) [Example 4.3-1, 1-(1-(6-(2-(2-hydroxypropan-2-yl)morpholino)pyrimidin-4-yl)-1H-indazol-6-yl)spiro[2.2]pentane-1-carbonitrile] | 1.8 |
| CC(C)(O)C1CN(c2cc(-n3ncc4ccc([C@]5(C#N)CC56CC6)cc43)ncn2)CCO1 (single isomer, unassigned) [Example 4.3-2, 1-(1-(6-(2-(2-hydroxypropan-2-yl)morpholino)pyrimidin-4-yl)-1H-indazol-6-yl)spiro[2.2]pentane-1-carbonitrile] | 0.6 |
| CC(C)(O)C12CC(C1)N(c1cc(-n3ncc4c(F)cc(C5(C#N)CC56CC6)cc43)ncn1)C2 (single isomer, unassigned) [Example 4.15-1] | 18.4 |
| CC(C)(O)C12CC(C1)N(c1cc(-n3ncc4c(F)cc(C5(C#N)CC56CC6)cc43)ncn1)C2 (single isomer, unassigned) [Example 4.15-2] | 2.3 |
| CC(C)(O)C12CC(C1)N(c1cc(-n3ncc4cnc(C5(C#N)CC56CC6)cc43)ncn1)C2 (single isomer, unassigned) [Example 5.2-1, 1-(1-(6-(4-(2-hydroxypropan-2-yl)-2-azabicyclo[2.1.1]hexan-2-yl)pyrimidin-4-yl)-1H-pyrazolo[4,3-c]pyridin-6-yl)spiro[2.2]pentane-1-carbonitrile] | 9.2 |
| CC(C)(O)C12CC(C1)N(c1cc(-n3ncc4cnc(C5(C#N)CC56CC6)cc43)ncn1)C2 (single isomer, unassigned) [Example 5.2-2, 1-(1-(6-(4-(2-hydroxypropan-2-yl)-2-azabicyclo[2.1.1]hexan-2-yl)pyrimidin-4-yl)-1H-pyrazolo[4,3-c]pyridin-6-yl)spiro[2.2]pentane-1-carbonitrile] | 1.7 |
| CC(C)(O)[C@@H]1CCN(c2cc(-n3ncc4cnc(C5(C#N)CC56CC6)cc43)ncn2)C1 (single isomer, unassigned) [Example 5.3-1] | 7.5 |
| CC(C)(O)[C@@H]1CCN(c2cc(-n3ncc4cnc(C5(C#N)CC56CC6)cc43)ncn2)C1 (single isomer, unassigned) [Example 5.3-2] | 0.7 |
| C[C@@H]1CN(c2cc(-n3ncc4cnc(C5(C#N)CC56CC6)cc43)ncn2)C[C@H](C)[C@]1(C)O (single isomer, unassigned) [Example 5.4-1] | 15 |
| C[C@@H]1CN(c2cc(-n3ncc4cnc(C5(C#N)CC56CC6)cc43)ncn2)C[C@H](C)[C@]1(C)O (single isomer, unassigned) [Example 5.4-2] | 2.6 |
| CC(C)(O)C12CC(C1)N(c1cc(-n3ncc4cc(F)c(C5(C#N)CC56CC6)cc43)ncn1)C2 (single isomer, unassigned) [Example 5.5-1, 1-(5-fluoro-1-(6-(4-(2-hydroxypropan-2-yl)-2-azabicyclo[2.1.1]hexan-2-yl)pyrimidin-4-yl)-1H-indazol-6-yl)spiro[2.2]pentane-1-carbonitrile] | 3.9 |
| CC(C)(O)C12CC(C1)N(c1cc(-n3ncc4cc(F)c(C5(C#N)CC56CC6)cc43)ncn1)C2 (single isomer, unassigned) [Example 5.5-2, 1-(5-fluoro-1-(6-(4-(2-hydroxypropan-2-yl)-2-azabicyclo[2.1.1]hexan-2-yl)pyrimidin-4-yl)-1H-indazol-6-yl)spiro[2.2]pentane-1-carbonitrile] | 31.6 |
| Cc1nc(N2CC3(C(C)(C)O)CC2C3)cc(-n2ncc3cc(F)c(C4(C#N)CC45CC5)cc32)n1 (single isomer, unassigned) [Example 5.6-1, 1-(5-fluoro-1-(6-(4-(2-hydroxypropan-2-yl)-2-azabicyclo[2.1.1]hexan-2-yl)-2-methylpyrimidin-4-yl)-1H-indazol-6-yl)spiro[2.2]pentane-1-carbonitrile] | 20.9 |
| Cc1nc(N2CC3(C(C)(C)O)CC2C3)cc(-n2ncc3cc(F)c(C4(C#N)CC45CC5)cc32)n1 (single isomer, unassigned) [Example 5.6-2, 1-(5-fluoro-1-(6-(4-(2-hydroxypropan-2-yl)-2-azabicyclo[2.1.1]hexan-2-yl)-2-methylpyrimidin-4-yl)-1H-indazol-6-yl)spiro[2.2]pentane-1-carbonitrile] | 1.3 |
| CC(C)(O)[C@@H]1CCN(c2cc(-n3ncc4cc(F)c(C5(C#N)CC56CC6)cc43)ncn2)C1 (single isomer, unassigned) [Example 5.7-1] | 21.7 |
| CC(C)(O)[C@@H]1CCN(c2cc(-n3ncc4cc(F)c(C5(C#N)CC56CC6)cc43)ncn2)C1 (single isomer, unassigned) [Example 5.7-2] | 2.6 |
| CC(C)(O)C12CC(C1)N(c1cc(-n3ncc4ccc(C5(C#N)CC56CC6)cc43)ccn1)C2 (single isomer, unassigned) [Example 6.1, (R or S)-1-(1-(2-(4-(2-hydroxypropan-2-yl)-2-azabicyclo[2.1.1]hexan-2-yl)pyridin-4-yl)-1H-indazol-6-yl)spiro[2.2]pentane-1-carbonitrile] | 1.2 |
| CC(C)(O)[C@@H]1CCN(c2cc(-n3ncc4cnc(C5(C#N)CC56CC6)cc43)ccn2)C1 (single isomer, unassigned) [Example 6.6-1] | 28.5 |
| CC(C)(O)[C@@H]1CCN(c2cc(-n3ncc4cnc(C5(C#N)CC56CC6)cc43)ccn2)C1 (single isomer, unassigned) [Example 6.6-2] | 3.4 |
| CC(C)(O)C12CC(C1)N(c1cc(-n3ncc4cnc(C5(C#N)CC56CC6)cc43)ccn1)C2 (single isomer, unassigned) [Example 6.7-1, 1-(1-(2-(4-(2-hydroxypropan-2-yl)-2-azabicyclo[2.1.1]hexan-2-yl)pyridin-4-yl)-1H-pyrazolo[4,3-c]pyridin-6-yl)spiro[2.2]pentane-1-carbonitrile] | 59 |
| CC(C)(O)C12CC(C1)N(c1cc(-n3ncc4cnc(C5(C#N)CC56CC6)cc43)ccn1)C2 (single isomer, unassigned) [Example 6.7-2, 1-(1-(2-(4-(2-hydroxypropan-2-yl)-2-azabicyclo[2.1.1]hexan-2-yl)pyridin-4-yl)-1H-pyrazolo[4,3-c]pyridin-6-yl)spiro[2.2]pentane-1-carbonitrile] | 7.8 |
| Cc1cc(-n2ncc3ccc(C4(C#N)CC45CC5)cc32)cc(N2CC3(C(C)(C)O)CC2C3)n1 (single isomer, unassigned) [Example 7.3-1, (R or S)-1-(1-(2-(4-(2-hydroxypropan-2-yl)-2-azabicyclo[2.1.1]hexan-2-yl)-6-methylpyridin-4-yl)-1H-indazol-6-yl)spiro[2.2]pentane-1-carbonitrile] | 54.2 |
| Cc1cc(-n2ncc3ccc(C4(C#N)CC45CC5)cc32)cc(N2CC3(C(C)(C)O)CC2C3)n1 (single isomer, unassigned) [Example 7.3-2, (R or S)-1-(1-(2-(4-(2-hydroxypropan-2-yl)-2-azabicyclo[2.1.1]hexan-2-yl)-6-methylpyridin-4-yl)-1H-indazol-6-yl)spiro[2.2]pentane-1-carbonitrile] | 4.6 |
| CC(C)(O)C12CC(C1)N(c1cc(-n3ncc4ccc(C5(C#N)CC56CC6)cc43)cnn1)C2 (single isomer, unassigned) [Example 10.3-1, (R or S)-1-(1-(6-(4-(2-hydroxypropan-2-yl)-2-azabicyclo[2.1.1]hexan-2-yl)pyridazin-4-yl)-1H-indazol-6-yl)spiro[2.2]pentane-1-carbonitrile] | 35.2 |
| CC(C)(O)C12CC(C1)N(c1cc(-n3ncc4ccc(C5(C#N)CC56CC6)cc43)cnn1)C2 (single isomer, unassigned) [Example 10.3-2, (R or S)-1-(1-(6-(4-(2-hydroxypropan-2-yl)-2-azabicyclo[2.1.1]hexan-2-yl)pyridazin-4-yl)-1H-indazol-6-yl)spiro[2.2]pentane-1-carbonitrile] | 15.4 |
| CC(C)(O)[C@@H]1CCN(c2cc(-n3ncc4ccc(C5(C#N)CC56CC6)cc43)cnn2)C1 (single isomer, unassigned) [Example 10.4-1] | 18.7 |
| CC(C)(O)[C@@H]1CCN(c2cc(-n3ncc4ccc(C5(C#N)CC56CC6)cc43)cnn2)C1 (single isomer, unassigned) [Example 10.4-2] | 2.7 |
